Results on two molecules are retold here after patent publication US6723710B2, “Compositions for inhibiting arginase activity” (The Trustees of the University of Pennsylvania, priority 1997, dated 2004).

Data set [1] concerns internal anal sphincter (IAS) smooth muscle. In words: NANC nerve-mediated relaxation of IAS smooth muscle strips by electrical field stimulation. The arrangement: species or system opossum (Didelphis virginiana). The following applies: L-NNA 3×10^−6 molar.
The subject of data set [2] is arginase activities of the various tissues. In words: arginase activity in tissue homogenates (liver, IAS, rectum, brain) with NO synthase inhibitor. In kind it is biochemical, opossum. The note with it: 80 micromolar; basal and in the presence of L-HO-Arg.
Substrate in data set [3]: N=C(N)Nc1cccc([N+](=O)[O-])c1
In words: continuous chromogenic arginase assay with substrate 1-nitro-3-guanidinobenzene (compound 18). The data set is classed as biochemical, rat. The following applies: other: as substrate, bicine pH 9.0.

`N=C(NCCC[C@H](N)C(=O)O)N[N+](=O)[O-]` [L-NNA, N^ω-nitro-L-arginine]: the “IAS relaxation in the presence of L-NNA” value in data set [1] (0.5 Hertz EFS) worked out at 0±0%; in data set [1] (1 Hertz EFS) it was 0.6±0.6%; in data set [1] (2 Hertz EFS), 1.8±1.1%; in data set [1] (5 Hertz EFS) it was 5.4±2.1%. For the same molecule, the “effect of L-NNA on arginase activities” value in data set [2] is “no significant effect”.

B1: Recombinant rat liver arginase (Rattus norvegicus) (protein)
chain: MSSKPKPIEIIGAPFSKGQPRGGVEKGPAALRKAGLVEKLKETEYNVRDHGDLAFVDVPNDSPFQIVKNPRSVGKANEQLAAVVAETQKNGTISVVLGGDHSMAIGSISGHARVHPDLCVIWVDAHTDINTPLTTSSGNLHGQPVAFLLKELKGKFPDVPGFSWVTPCISAKDIVYIGLRDVDPGEHYIIKTLGIKYFSMTEVDKLGIGKVMEETFSYLLGRKKRPIHLSFDVDGLDPVFTPATGTPVVGGLSYREGLYITEEIYKTGLLSGLDIMEVNPTLGKTPEEVTRTVNTAVALTLSCFGTKREGNHKPETDYLKPPK
notes: made in house
B1: the Km in data set [3] came out at 1.6±0.2 millimolar.
